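Dose response: 5 concentrations. Exposure: 48 h. Format: 96-well plates. Endpoint: linear interpolation; highest concentration if not reached. At the GI50, growth is halved. TGI denotes the concentration required for complete inhibition of growth.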
What was measured:
Assay in all cases: NCI anticancer screen, dose series, 48 h
786-0 renal = test system: 786-0 renal
A498 renal = test system: A498 renal
A549 NSCLC = test system: A549 NSCLC
ACHN renal = test system: ACHN renal
BT-549 breast = test system: BT-549 breast
CAKI-1 renal = test system: CAKI-1 renal
CCRF-CEM leukemia = test system: CCRF-CEM leukemia
COLO 205 colon = test system: COLO 205 colon
DU-145 prostate = test system: DU-145 prostate
EKVX NSCLC = test system: EKVX NSCLC
HCC-2998 colon = test system: HCC-2998 colon
HCT-116 colon = test system: HCT-116 colon
HCT-15 colon = test system: HCT-15 colon
HL-60(TB) leukemia = test system: HL-60(TB) leukemia
HOP-62 NSCLC = test system: HOP-62 NSCLC
HOP-92 NSCLC = test system: HOP-92 NSCLC
HS 578T breast = test system: HS 578T breast
HT29 colon = test system: HT29 colon
IGROV1 ovarian = test system: IGROV1 ovarian
K-562 leukemia = test system: K-562 leukemia
KM12 colon = test system: KM12 colon
LOX IMVI melanoma = test system: LOX IMVI melanoma
M14 melanoma = test system: M14 melanoma
MCF7 breast = test system: MCF7 breast
MDA-MB-231 breast = test system: MDA-MB-231 breast
MDA-MB-435 = test system: MDA-MB-435
MOLT-4 leukemia = test system: MOLT-4 leukemia
NCI-H226 lung = test system: NCI-H226 lung
NCI-H23 lung = test system: NCI-H23 lung
NCI-H460 lung = test system: NCI-H460 lung
NCI-H522 lung = test system: NCI-H522 lung
NCI/ADR-RES ovarian = test system: NCI/ADR-RES ovarian
OVCAR-3 ovarian = test system: OVCAR-3 ovarian
OVCAR-4 ovarian = test system: OVCAR-4 ovarian
OVCAR-5 ovarian = test system: OVCAR-5 ovarian
OVCAR-8 ovarian = test system: OVCAR-8 ovarian
PC-3 prostate = test system: PC-3 prostate
RPMI-8226 leukemia = test system: RPMI-8226 leukemia
RXF 393 renal = test system: RXF 393 renal
SF-268 CNS = test system: SF-268 CNS
SF-295 CNS = test system: SF-295 CNS
SF-539 CNS = test system: SF-539 CNS
SK-MEL-2 melanoma = test system: SK-MEL-2 melanoma
SK-MEL-28 melanoma = test system: SK-MEL-28 melanoma
SK-MEL-5 melanoma = test system: SK-MEL-5 melanoma
SK-OV-3 ovarian = test system: SK-OV-3 ovarian
SN12C renal = test system: SN12C renal
SNB-19 CNS = test system: SNB-19 CNS
SNB-75 CNS = test system: SNB-75 CNS
SR leukemia = test system: SR leukemia
SW-620 colon = test system: SW-620 colon
TK-10 renal = test system: TK-10 renal
U251 CNS = test system: U251 CNS
UACC-62 melanoma = test system: UACC-62 melanoma
UO-31 renal = test system: UO-31 renal

`CCn1c2ccccc2c2cc(C(O)c3cccc4ncccc34)ccc21` (stereo not drawn) was tested, and the GI50 (786-0 renal) was 0.0559 µM, the TGI (786-0 renal) was 7.29 µM and the GI50 (A498 renal) was 0.0251 µM. For the same compound, the TGI (A498 renal) was 0.267 µM, the GI50 (A549 NSCLC) was 0.0684 µM and the TGI (A549 NSCLC) was > 49.4 µM. For the same compound, the GI50 (ACHN renal) was 0.0715 µM, the TGI (ACHN renal) was 41.9 µM and the GI50 (BT-549 breast) was 0.0702 µM. The TGI (BT-549 breast) was 15.6 µM, the GI50 (CAKI-1 renal) was 0.0425 µM and the TGI (CAKI-1 renal) was > 100 µM. The GI50 (CCRF-CEM leukemia) was 0.0484 µM, the TGI (CCRF-CEM leukemia) was > 100 µM and the GI50 (COLO 205 colon) was 0.0427 µM. The TGI (COLO 205 colon) was 0.251 µM, the GI50 (DU-145 prostate) was 0.0828 µM and the TGI (DU-145 prostate) was 4.78 µM. For the same compound, the GI50 (EKVX NSCLC) was 0.0864 µM, the TGI (EKVX NSCLC) was > 100 µM and the GI50 (HCC-2998 colon) was 0.257 µM. It also gave a TGI (HCC-2998 colon) of 15.7 µM, a GI50 (HCT-116 colon) of 0.0441 µM and a TGI (HCT-116 colon) of 15.4 µM. It also gave a GI50 (HCT-15 colon) of 0.0409 µM, a TGI (HCT-15 colon) of 12.1 µM and a GI50 (HL-60(TB) leukemia) of 0.0279 µM. For the same compound, the TGI (HL-60(TB) leukemia) was 0.0787 µM, the GI50 (HOP-62 NSCLC) was 0.0507 µM and the TGI (HOP-62 NSCLC) was > 73.3 µM. For the same compound, the GI50 (HOP-92 NSCLC) was 0.0324 µM, the TGI (HOP-92 NSCLC) was 4.98 µM and the GI50 (HS 578T breast) was 0.0505 µM. For the same compound, the TGI (HS 578T breast) was 23.5 µM, the GI50 (HT29 colon) was 0.0357 µM and the TGI (HT29 colon) was 1.66 µM. The GI50 (IGROV1 ovarian) was 0.174 µM, the TGI (IGROV1 ovarian) was > 100 µM and the GI50 (K-562 leukemia) was 0.0389 µM. For the same compound, the TGI (K-562 leukemia) was 10.9 µM, the GI50 (KM12 colon) was 0.0421 µM and the TGI (KM12 colon) was 6.56 µM. It also gave a GI50 (LOX IMVI melanoma) of 0.0631 µM, a TGI (LOX IMVI melanoma) of 13.4 µM and a GI50 (M14 melanoma) of 0.0468 µM. The TGI (M14 melanoma) was > 100 µM, the GI50 (MCF7 breast) was 0.0331 µM and the TGI (MCF7 breast) was 20.2 µM. For the same compound, the GI50 (MDA-MB-231 breast) was 0.128 µM, the TGI (MDA-MB-231 breast) was 11.4 µM and the GI50 (MDA-MB-435) was 0.0215 µM. For the same compound, the TGI (MDA-MB-435) was 0.06 µM, the GI50 (MOLT-4 leukemia) was 0.0633 µM and the TGI (MOLT-4 leukemia) was > 100 µM. For the same compound, the GI50 (NCI-H226 lung) was 0.831 µM, the TGI (NCI-H226 lung) was 46.8 µM and the GI50 (NCI-H23 lung) was 0.0958 µM. The TGI (NCI-H23 lung) was 19.5 µM, the GI50 (NCI-H460 lung) was 0.0388 µM and the TGI (NCI-H460 lung) was 4.61 µM. For the same compound, the GI50 (NCI-H522 lung) was 0.0212 µM, the TGI (NCI-H522 lung) was 0.107 µM and the GI50 (NCI/ADR-RES ovarian) was 0.0396 µM. For the same compound, the TGI (NCI/ADR-RES ovarian) was 13.7 µM, the GI50 (OVCAR-3 ovarian) was 0.0422 µM and the TGI (OVCAR-3 ovarian) was 39.9 µM. It also gave a GI50 (OVCAR-4 ovarian) of 0.318 µM, a TGI (OVCAR-4 ovarian) of 87.3 µM and a GI50 (OVCAR-5 ovarian) of 3.25 µM. For the same compound, the TGI (OVCAR-5 ovarian) was > 100 µM, the GI50 (OVCAR-8 ovarian) was 0.122 µM and the TGI (OVCAR-8 ovarian) was > 69.4 µM. For the same compound, the GI50 (PC-3 prostate) was 0.0413 µM, the TGI (PC-3 prostate) was > 85.7 µM and the GI50 (RPMI-8226 leukemia) was 0.0724 µM. For the same compound, the TGI (RPMI-8226 leukemia) was 7.85 µM, the GI50 (RXF 393 renal) was 0.0518 µM and the GI50 (SF-268 CNS) was 0.068 µM. For the same compound, the TGI (SF-268 CNS) was > 73.6 µM, the GI50 (SF-295 CNS) was 0.0335 µM and the TGI (SF-295 CNS) was 22.1 µM. The GI50 (SF-539 CNS) was 0.0346 µM, the TGI (SF-539 CNS) was 0.224 µM and the GI50 (SK-MEL-2 melanoma) was 0.0543 µM. The TGI (SK-MEL-2 melanoma) was 39.4 µM, the GI50 (SK-MEL-28 melanoma) was 3.47 µM and the TGI (SK-MEL-28 melanoma) was > 100 µM. The GI50 (SK-MEL-5 melanoma) was 0.0465 µM, the TGI (SK-MEL-5 melanoma) was 1.57 µM and the GI50 (SK-OV-3 ovarian) was 0.0545 µM. The TGI (SK-OV-3 ovarian) was > 100 µM, the GI50 (SN12C renal) was 0.0591 µM and the TGI (SN12C renal) was 6.24 µM. The GI50 (SNB-19 CNS) was 0.0437 µM, the TGI (SNB-19 CNS) was 34.7 µM and the GI50 (SNB-75 CNS) was 0.0254 µM. It also gave a TGI (SNB-75 CNS) of 34.1 µM, a GI50 (SR leukemia) of 0.0248 µM and a GI50 (SW-620 colon) of 0.0399 µM. The TGI (SW-620 colon) was > 100 µM, the GI50 (TK-10 renal) was 3.7 µM and the TGI (TK-10 renal) was > 78.6 µM. For the same compound, the GI50 (U251 CNS) was 0.0411 µM, the TGI (U251 CNS) was 3.56 µM and the GI50 (UACC-62 melanoma) was 0.0443 µM. For the same compound, the TGI (UACC-62 melanoma) was 2.32 µM, the GI50 (UO-31 renal) was 0.285 µM and the TGI (UO-31 renal) was > 100 µM.

From PubChem BioAssay (NCI)
